From publication PMC5655689, “Therapeutic potential of the phosphino Cu(I) complex (HydroCuP) in the treatment of solid tumors” (Scientific Reports, 2017)
Values joined by “and” are separate entries in the source; they are usually repeats but may differ in a detail not shown here. Identical values can stand only once.

Key:
[1] = test system: HCT-15 human colon cancer spheroids; assay: 3D spheroid cell viability, acid phosphatase (APH) assay, HCT-15; format: cell-based; settings: HCT-15 spheroids, 72 h, APH test; read-out: IC50 (μM) ± SD HCT-15
Experimental: (§1) In order to improve the predictive capacity of the in vitro assays, we tested HydroCuP activity in two 3D cell cultures of human colon cancer cells, HCT-15 and LoVo. The colon cancer spheroids were treated with HydroCuP for 72 h and the cell viability was assessed by means of the acid phosphatase (APH) assay (Fig. 1, panel A).
(§2) Figure 1 Activity in 3D cell cultures. (A) Spheroids (2.5 × 10^3 cells/well) were treated for 72 h with increasing concentrations of tested compounds. The growth inhibitory effect was evaluated by means of APH test. IC50 values were calculated from the dose-survival curves by four parameter logistic model (P < 0.05). SD = standard deviation.
(§3) Spheroids were initiated in liquid overlay by seeding 2.5 × 10^3 HCT-15 and LoVo cells/well in phenol red-free RPMI-1640 medium (Sigma Chemical Co.), containing 10% FCS and supplemented with 20% methyl cellulose stock solution. A total of 150 μl of this cell suspension was transferred to each well of a round bottom non-tissue culture treated 96 well-plate (Greiner Bio-one, Kremsmünster, Austria) to allow spheroid formation within 72 h.
(§4) A modified APH assay, which is based on quantification of cytosolic acid phosphatase activity, was used for determining cell viability in spheroids. Briefly, the pre-seeded spheroids were treated with fresh medium containing the compound to be studied at the appropriate concentration (range 5–150 μM). Triplicate cultures were established for each treatment. After 72 h, each well was treated with 100 μL of the assay buffer (0.1 M sodium acetate, 0.1% Triton-X-100, supplemented with ImmunoPure p-nitrophenyl phosphate; Sigma Chemical Co.) and, following 3 h of incubation, 10 μL of 1 M NaOH solution were added. The inhibition of the cell growth induced by the tested complexes was detected by measuring the absorbance of each well at 405 nm, using a Bio-Rad 680 microplate reader. Mean absorbance for each drug dose was expressed as a percentage of the control untreated well absorbance (T/C) and plotted vs drug concentration. IC50 values, the drug concentrations that reduce the mean absorbance at 405 nm 50% of those in the untreated control wells, were calculated by four-parameter logistic (4-PL) model. Evaluation was based on means from at least four independent experiments.

[2] = test system: LoVo human colon cancer spheroids; assay: 3D spheroid cell viability, acid phosphatase (APH) assay, LoVo; format: cell-based; settings: 72 h, APH test, read-out: IC50 (μM) ± SD LoVo
Experimental: as §1, §2, §3, §4

[3] = test system: Lewis Lung Carcinoma (LLC); assay: In vivo antitumor activity towards Lewis Lung Carcinoma (LLC) implanted i.m. in C57BL mice; parameters: species or system mouse; settings: for Average tumor weight (mean ± S.D., g) / Inhibition of tumor growth (%): day 15; for Body weight changes: LLC-bearing C57BL mice
Experimental: The schedule of HydroCuP administration in vivo was initially determined by assessing the total dose that could be injected without undue toxicity for different schedules in nontumor-bearing C57BL mice (data not shown). […] Three schedules of i.p. HydroCuP were administered: early treatment (days 3, 5, 7 and 9 after tumor inoculum), intermediate treatment (days 7–14) and late treatment with split-doses (days 9–11 with a loading dose and days 12–14 with a lower maintenance dose). […] Cisplatin treatment schedule was selected according to standard protocols designed to optimize its efficacy and minimize the occurrence of adverse events. For the early treatment, control mice received the vehicle (0.9% NaCl). HydroCuP was dosed at 25, 35 and 50 mg/kg i.p. on days 3, 5, 7, 9, 11 and 13 after tumor implantation. Cisplatin was dosed at 1.5 mg/kg i.p. on days 3, 5, 7, 9, 11 and 13 after tumor implantation.
The mice were purchased from Charles River, Italy, housed in steel cages under controlled environmental conditions (constant temperature, humidity, and 12 h dark/light cycle), and alimented with commercial standard feed and tap water ad libitum. The LLC cell line was purchased from ECACC, United Kingdom. The LLC cell line was maintained in DMEM (Euroclone, Pero, Italy) supplemented with 10% heat-inactivated foetal bovine serum (Euroclone, Pero, Italy), 10 mM L-glutamine, 100 U/mL penicillin, and 100 µg/mL streptomycin in a 5% CO2 air incubator at 37 °C. The LLC was implanted intramuscularly (i.m.) as a 2 × 10^6 cell inoculum into the right hind leg of 8-week old male and female C57BL mice (24 ± 3 g body weight). The antitumor activity of HydroCuP in LLC tumor model has been investigated by means of different schedules (early treatment, intermediate treatment and late treatment) and compared with that promoted by the reference metallodrug, CDDP. In the early-stage treatment, animals were treated at day 3, 5, 7, 9, 11 and 13 after the tumor cell inoculum with an i.p. injection of HydroCuP (25, 35 and 50 mg/kg), CDDP (1.5 mg/kg) or the vehicle solution (0.9% NaCl).
In the intermediate treatment, animals were treated after 7 days from tumor implantation (visible tumor) with daily i.p. doses of HydroCuP (30 and 50 mg/kg), CDDP (1.5 mg/kg) or the vehicle solution (0.9% NaCl). In the late treatment, animals were treated after 9 days from tumor implantation (palpable tumor) with i.p. doses of HydroCuP (50 mg/kg) from day 9 to day 11 and with i.p. doses of HydroCuP (30 mg/kg) from day 12 to day 14, or with daily doses of CDDP (1.5 mg/kg) or with the vehicle solution (0.9% NaCl). At day 15, animals were sacrificed, the legs were amputated at the proximal end of the femur, and the inhibition of tumor growth was determined according to the difference in weight of the tumor-bearing leg and the healthy leg of the animals expressed as a percentage referring to the control animals. Body weight was measured every 2 days and was taken as a parameter for systemic toxicity.

[4] = Nephrotoxicity: urinary biomarkers (uTP, NAG) in Sprague Dawley rats; format: in vivo, rat; settings: single i.p. 1.5 mg/kg, urine 24, 72, 120 h
Experimental: Figure 5 Neurotoxicity studies. […] Bar: 500 µm. […] Nephrotoxicity studies. […] Error bars indicate the S.D. The potential nephrotoxic effect of HydroCuP was evaluated by measuring some specific biomarkers in urines obtained from 8-week-old male Sprague Dawley rats treated with a single i.p. injection of HydroCuP and CDDP. Urines of the treated animals were collected after 24, 72 and 120 h, and urinary total protein (uTP) and N-acetyl-β-D-glucosaminidase (NAG) were evaluated as signs of nephrotoxicity. […] On the contrary, treatment with HydroCuP determined a 24 h excretion of uTP roughly 12 times lower than that recorded with CDDP (Fig. 5, panel D). Following 120 h, the levels of uTP excreted by HydroCuP were 11 times lower compared with the reference metallodrug. Eight-week-old male Sprague Dawley rats were randomly allocated to five groups (five animals per group) and treated with a single i.p. injection of HydroCuP (50 mg/kg) or the vehicle solution (0.2 mL saline solution, control). Cisplatin (1.5 mg/kg,) was also used under the same experimental conditions for comparison purposes. […] Later, urines were centrifuged (150 g for 10 minutes at room temperature) to discard debris and aliquoted to measure creatinine, uTP and NAG. Urine creatinine assays were performed using creatinine assay kit from Sigma Chemical Co. (St. Louis, MO). uTPs were measured by means of BioRad Total Protein Test (Hercules, CA). Urinary NAG was measured spectrophotometrically with the NAG kit (Roche diagnostics, Basel, Switzerland) according to the manufacturer’s protocols. uTP and NAG are expressed as grams per millimoles of creatinine (g mmol^−1 creatinine).

[5] = parameters: method as in PMID 24035926; settings: patients under cisplatin treatment; cited from earlier work
[6] = test system: DRG explants from 15 day-embryonic Sprague-Dawley rats; assay: Neurotoxicity: neurite elongation in DRG explants; settings: 48 h, DRG explants with NGF; for Neurotoxic effect (neurite elongation): OXP 5, 7.5, 10 μM, HydroCuP 5, 10, 20 μM
Experimental: To investigate the potential neurotoxic effect of HydroCuP, we employed a well-established in vitro model based on organotypic cultures of DRG from 15-day-old rat embryos. Neurite elongation under NGF influence was evaluated in DRG explants. […] For comparison purposes, the effect induced by the reference drugs OXP and CDDP was also tested.
OXP and HydroCuP toxicity at 48 h in DRG explants from 15 day-embryonic Sprague-Dawley rats. Representative images of neurite length in maturing DRG explants with different concentrations of OXP and HydroCuP (A). Bar: 500 µm.
DRG from E15 Sprague-Dawley rats (Envigo, San Pietro al Natisone, Italy) were aseptically removed and cultured onto a single layer of rat tail collagen surfaces in 35-mm dishes as previously described[36].
The DRG were incubated in AN2 medium [MEM added with 1.4 mM L-glutamine (Euroclone, Pero, Italy), 10% calf bovine serum (Hyclone, Thermo Scientific, Logan, UT) 50 µg/ml ascorbic acid, 0.6% glucose (Sigma-Aldrich) in the presence of 5 ng/ml nerve growth factor (NGF; Life Technologies, Monza, Italy) in a 5% CO2 humidified incubator at 37 °C.
To evaluate the neurotoxicity of HydroCuP and OXP, the DRG explants were treated for 2 h with NGF and subsequently exposed to each drug at different concentrations for 48 h. OXP was tested at 5, 7.5 and 10 μM while 5, 10 and 20 μM of HydroCuP was used. DRG treated with AN2 medium supplemented with 5 ng/ml NGF alone were used as controls. Phase-contrast micrographs were taken, and the length of the longest neurite in each DRG was measured by Image J (NIH, Bethesda, MD), using a standard calibration grating photographed at the same magnification. A compound is considered neurotoxic when the mean neurite elongation is reduced by 50% or more after drug exposure vs control.

[7] = patients, reported by the Food and Drug Administration; cited from earlier work
[8] = test system: LoVo colorectal oxaliplatin-sensitive xenograft; assay: In vivo activity toward LoVo (OXP-sensitive) tumor xenograft in BALB/c nu/nu mice
Experimental: (§5) To this aim, we developed the OXP-sensitive and OXP-resistant LoVo xenografts in BALB/c nu/nu mice. […] OXP-sensitive or OXP-resistant LoVo cells (1 × 10^7) were injected in the flank of mice. Once tumor was established (tumor volumes of about 0.4 cm^3, around 14 days after tumor inoculation), mice were randomly divided into six groups (6 animals per group, 8 controls). The HydroCuP-treated groups (6 mice each group) received daily 30 mg/kg by i.p. injection and the OXP-treated group was given 2 mg/kg by i.p. injection. At day 30, animals were sacrificed, and the inhibition of tumor growth was determined (Fig. 4, panel A). Measurements of body weights were recorded from day 14 every 2 days until the experimental endpoint (Fig. 4, panel B).
(§6) (A) LoVo and LoVo-OXP tumor xenografts in 6-week-old BALB/c nu/nu mice by injecting 1 × 10^7 tumor cells subcutaneously on the left dorsal flank. After 24 h from tumor implantation, mice randomly divided into six groups (6 animals per group). Chemotherapy delayed until day 14 (tumor volumes of about 0.4 cm^3). From day 14, HydroCuP dosed daily at 30 mg/kg i.p., OXP dosed daily at 2 mg/kg i.p. At day 30, animals sacrificed, and the inhibition of tumor growth determined by comparing the volume of the control group and the treatment group expressed as percentage referred to the control animals. Error bars indicate the S.D. *p < 0.05, **p < 0.01, with respect to control. […] Body weight was measured every two days and was taken as a parameter of systemic toxicity. The error bars indicate the S.D. **P < 0.01; *P < 0.05.
(§7) LoVo and LoVo-OXP tumor xenografts were established in 6-week-old BALB/c nu/nu mice by injecting 1 × 10^7 tumor cells subcutaneously (100 μL in serum free medium) on the left dorsal flank. After 24 h from tumor implantation, mice were randomly divided into six groups (6 animals per group, 8 controls). Chemotherapy was delayed until the tumor was about 0.4 cm^3 (day 14). From day 14, HydroCuP was dosed daily at 30 mg/kg i.p. whereas OXP was dosed daily at 2 mg/kg i.p. Measurements of body weights and tumor volumes were recorded from day 14 every 2 days until the experimental endpoint. The long axis (L) and the short axis (S) were measured with callipers, and the tumor volume (V) was calculated using the following equation: V = SxSxL/2. At day 30, animals were sacrificed, and the inhibition of tumor growth was determined by comparing the volume of the control group and the treatment group expressed as percentage referred to the control animals.

[9] = test system: LoVo colorectal oxaliplatin-resistant xenograft; assay: In vivo activity toward LoVo-OXP (OXP-resistant) tumor xenograft in BALB/c nu/nu mice
Experimental: as §5, §6, §7

[10] = Early treatment, 1.5 mg/kg i.p. days 3, 5, 7, 9, 11, 13
[11] = 2 mg/kg daily i.p. from day 14, day 30

SMILES | IC50 [1] | IC50 [2] | Average tumor weight (mean ± S.D., g) [3, 10] | Inhibition of tumor growth (%) [3, 10] | Body weight changes ([3]; Early treatment, 15 days) | Average tumor weight (mean ± S.D., g) ([3]; Intermediate treatment, 1.5 mg/kg daily i.p. day 7-14) | Inhibition of tumor growth (%) ([3]; Intermediate treatment, 1.5 mg/kg daily i.p. day 7-14, 1.5 mg/kg) | Body weight changes ([3]; Intermediate treatment) | Average tumor weight (mean ± S.D., g) ([3]; Late treatment, 1.5 mg/kg daily i.p. from day 9) | Inhibition of tumor growth (%) ([3]; Late treatment, 1.5 mg/kg daily i.p. from day 9, 1.5 mg/kg) | NAG [4] | uTP excretion [4] | Patients with irreversible renal damage [5] | Neurotoxic effect (neurite elongation) [6] | Rate of symptomatic neurotoxicity with any severity [7] | Reduction of neurite length ([6]; 7.5 µM) | Body weight loss ([8]; 2 mg/kg daily i.p.) | Inhibition of tumor growth [8, 11] | Body weight loss ([9]; 2 mg/kg daily i.p.) | Inhibition of tumor growth [9, 11]
[NH2][Pt]([NH2])([Cl])[Cl] [CDDP, cisplatin, reference compound] | 68.2 ± 4.58 µM | 60.6 ± 6.28 µM | 0.168 ± 0.10 g | 73.66% | substantial weight loss | 0.061 ± 0.03 g | 87% and 87.84% | elevated weight loss | 0.118 ± 0.10 g | 73% and 72.68% | significant increase | significant increase of uTP excretion | about one-third | significantly reduced neurite elongation in a dose-dependent manner | – | – | – | – | – | –
O=C1[O][Pt]2([NH][C@@H]3CCCC[C@H]3[NH]2)[O]C1=O [OXP, oxaliplatin] | 30.2 ± 2.34 µM | 22.2 ± 4.75 µM | – | – | – | – | – | – | – | – | – | – | – | significantly reduced neurite elongation in a dose-dependent manner | more than 70% | 50% | about 23% | about 55% | about 23% | 20%
